According to patent publication US12479856B2, “Pharmaceutical compounds for the treatment of complement mediated disorders” (Achillion Pharmaceuticals, Inc., priority 2019, dated 2025):
Like-named read-outs stand apart in the source and are kept apart here.

Target: T1, Human complement C1s enzyme (Homo sapiens, UniProt P09871)
T1 construct: purified from human serum, Complement Technology, Inc; purchased Complement Technology, Inc; host or cells: human serum (plasma-derived natural protein)
T1 sequence (P09871 438-688 limits assumed): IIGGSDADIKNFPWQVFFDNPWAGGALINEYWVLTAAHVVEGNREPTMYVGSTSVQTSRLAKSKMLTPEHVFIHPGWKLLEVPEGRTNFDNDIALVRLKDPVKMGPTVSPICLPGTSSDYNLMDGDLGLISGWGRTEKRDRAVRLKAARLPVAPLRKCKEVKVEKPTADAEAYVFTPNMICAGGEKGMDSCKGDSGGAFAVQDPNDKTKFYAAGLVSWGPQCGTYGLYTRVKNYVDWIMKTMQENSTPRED
T1 sequence (P09871 16-437 partner limits assumed): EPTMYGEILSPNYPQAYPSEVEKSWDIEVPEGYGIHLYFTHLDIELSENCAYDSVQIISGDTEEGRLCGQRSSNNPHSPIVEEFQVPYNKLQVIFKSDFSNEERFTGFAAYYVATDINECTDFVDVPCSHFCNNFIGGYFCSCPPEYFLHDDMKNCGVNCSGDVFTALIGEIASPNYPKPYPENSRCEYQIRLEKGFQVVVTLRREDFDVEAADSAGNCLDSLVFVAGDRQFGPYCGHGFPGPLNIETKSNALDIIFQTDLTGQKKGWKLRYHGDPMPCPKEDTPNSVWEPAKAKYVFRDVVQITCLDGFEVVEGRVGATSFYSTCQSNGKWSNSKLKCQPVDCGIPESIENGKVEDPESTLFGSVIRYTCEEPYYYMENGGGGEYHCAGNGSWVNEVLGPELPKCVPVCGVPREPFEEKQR
Test: Human C1s Enzyme Assay
Assay type: biochemical
Conditions: C1s purified from human serum, 1.16 nM, substrate Z-L-Lys-SBzl, read-out: C1s Protease Activity
Outline: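 Serum-purified human C1s (1.16 nM) preincubated 5 min at RT with compound in 50 mM Tris, 1 M NaCl, pH 7.5. Z-L-Lys-SBzl and DTNB (100 μM each) then added; A405 followed every 30 s for 30 min. IC50 from nonlinear regression of reaction rates versus compound concentration.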

Row | IC50 (Table 1) [nM] | IC50 (Table 2) [nM] | Structure (SMILES) | also measured
1 | > 1000 | – | Nc1ccc(CCNC(=O)[C@@H]2CC3(CN2C(=O)CNC(=O)c2ccc(Oc4ccccc4)cc2)OCCO3)cc1 [Compound 23, (8S)—N-[2-(4-Aminophenyl)ethyl]-7-{2-[(4-phenoxyphenyl)formamido]acetyl}-1,4-dioxa-7-azaspiro[4.4]nonane-8-carboxamide] | –
2 | – | – | N=C(N)c1csc(CNC(=O)[C@@H]2C[C@](F)(CF)CN2C(=O)CNC(=O)c2ccc(Oc3ccccc3)cc2)c1 [Compound 106, (2S,4R)-N-((4-carbamimidoylthiophen-2-yl)methyl)-4-fluoro-4-(fluoromethyl)-1-((4-phenoxybenzoyl)glycyl)pyrrolidine-2-carboxamide] | IC50 (Table 3): < 100 nM
3 | > 1000 | – | N=C(N)c1csc(CNC(=O)[C@H]2CCCN2C(=O)CNC(=O)c2ccc(Oc3ccccc3)cc2)c1 [Compound 5, (2R)—N-[(4-Carbamimidoylthiophen-2-yl)methyl]-1-{2-[(4-phenoxyphenyl)-formamido]acetyl}pyrrolidine-2-carboxamide] | –
4 | < 100 | – | C[C@@]12C[C@@H]1N(C(=O)CNC(=O)c1ccc(Oc3ccccc3)cc1)[C@H](C(=O)NCc1cc(C(=N)N)cs1)C2 [Compound 9, (1S,3S,5S)—N-[(4-Carbamimidoylthiophen-2-yl)methyl]-5-methyl-2-{2-[(4-phenoxyphenyl)formamido]acetyl}-2-azabicyclo[3.1.0]hexane-3-carboxamide] | –
5 | > 1000 | – | CC(=O)Nc1ccc(CNC(=O)[C@@H]2CC3(CN2C(=O)CNC(=O)c2ccc(Oc4ccccc4)cc2)OCCO3)cc1 [Compound 21, (8S)—N-[(4-Acetamidophenyl)methyl]-7-{2-[(4-phenoxyphenyl)formamido]acetyl}-1,4-dioxa-7-azaspiro[4.4]nonane-8-carboxamide] | –
6 | – | > 1000 | CN(C)CCCCCC(=O)NCC(=O)N1CCC[C@H]1C(=O)NCc1cc(C(=N)N)cs1 [Compound 71, (S)-N-((4-carbamimidoylthiophen-2-yl)methyl)-1-((6-(dimethylamino)hexanoyl)glycyl)pyrrolidine-2-carboxamide] | –
7 | – | < 100 | CCCCc1ccc(C(=O)NCC(=O)N2CCC[C@H]2C(=O)NCc2cc(C(=N)N)cs2)cc1 [Compound 73, (S)-1-((4-butylbenzoyl)glycyl)-N-((4-carbamimidoylthiophen-2-yl)methyl)pyrrolidine-2-carboxamide] | –
8 | – | 100 to 1000 | CCOc1ccc(C(=O)NCC(=O)N2CCC[C@H]2C(=O)NCc2cc(C(=N)N)cs2)cc1 [Compound 76, (S)-N-((4-carbamimidoylthiophen-2-yl)methyl)-1-((4-ethoxybenzoyl)glycyl)pyrrolidine-2-carboxamide] | –
9 | – | < 100 | N=C(N)c1csc(CNC(=O)[C@@H]2CCCN2C(=O)CNC(=O)CCCCCc2ccccc2)c1 [Compound 81, (S)-N-((4-carbamimidoylthiophen-2-yl)methyl)-1-((6-phenylhexanoyl)glycyl)pyrrolidine-2-carboxamide] | –
10 | – | < 100 | CC(C)(c1ccccc1)c1ccc(C(=O)NCC(=O)N2CCC[C@H]2C(=O)NCc2cc(C(=N)N)cs2)cc1 [Compound 57, (S)-N-((4-carbamimidoylthiophen-2-yl)methyl)-1-((4-(2-phenylpropan-2-yl)benzoyl)glycyl)pyrrolidine-2-carboxamide] | –
11 | – | < 100 | CC(c1ccccc1)c1ccc(C(=O)NCC(=O)N2CCC[C@H]2C(=O)NCc2cc(C(=N)N)cs2)cc1 (stereo partly drawn) [Compound 58, (2S)-N-((4-carbamimidoylthiophen-2-yl)methyl)-1-((4-(1-phenylethyl)benzoyl)glycyl)pyrrolidine-2-carboxamide] | –
12 | – | < 100 | CCCCCc1cc(C(=O)NCC(=O)N2CCC[C@H]2C(=O)NCc2cc(C(=N)N)cs2)ccc1Oc1ccccc1 [Compound 42, (S)-N-((4-carbamimidoylthiophen-2-yl)methyl)-1-((3-pentyl-4-phenoxybenzoyl)glycyl)pyrrolidine-2-carboxamide] | –
13 | < 100 | – | N=C(N)c1csc(CNC(=O)[C@@H]2CC3(CN2C(=O)CNC(=O)c2ccc(Oc4ccccc4)cc2)OCCO3)c1 [Compound 2, (8S)—N-[(4-carbamimidoylthiophen-2-yl)methyl]-7-{2-[(4-phenoxyphenyl)formamido]acetyl}-1,4-dioxa-7-azaspiro[4.4]nonane-8-carboxamide] | –
14 | – | < 100 | CCCCCCCCC(=O)NCC(=O)N1CCC[C@H]1C(=O)NCc1cc(C(=N)N)cs1 [Compound 85, (S)-N-((4-carbamimidoylthiophen-2-yl)methyl)-1-(nonanoylglycyl)pyrrolidine-2-carboxamide] | –
15 | – | – | N=C(N)c1csc(CNC(=O)[C@@H]2C[C@@H]3CCCC[C@@H]3N2C(=O)CNC(=O)c2ccc(Oc3ccccc3)cc2)c1 [Compound 102, (2S,3aS,7aS)-N-((4-carbamimidoylthiophen-2-yl)methyl)-1-((4-phenoxybenzoyl)glycyl)octahydro-1H-indole-2-carboxamide] | IC50 (Table 3): < 100 nM
